Values of other authors in US6369115B1, “Stabilized powder formulations” (Dura Pharmaceuticals, Inc., priority 2000, dated 2002).

Compound | solubility in water
COc1ccc(CC(C)NCC(O)c2ccc(O)c(NC=O)c2)cc1 (centres unmarked) [Formoterol, N-[2-hydroxy-5-[1-hydroxy-2-[[2-(4-methoxyphenyl)-1-methylethyl]amino]ethyl]phenyl]formamide] | soluble in water
CCC(=O)O[C@]1(C(=O)SCF)[C@H](C)C[C@H]2[C@@H]3C[C@H](F)C4=CC(=O)C=C[C@]4(C)[C@@]3(F)[C@@H](O)C[C@@]21C [fluticasone propionate, (6 alpha, 11 beta, 16 alpha, 17 alpha)-6,9,-difluoro-11-hydroxy-16-methyl-3-oxo-17-(1-oxopropoxy)androsta-1,4-diene-17-carbothioic acid, S-fluoromethyl ester] | insoluble in water
